The target in one experiment is Histone deacetylase 1 (Homo sapiens, UniProt Q13547). The experiment in a line: Inhibition of HDAC1 in human HeLa cell nuclear extract using Boc-Lys(Ac)-AMC or Boc-Lys(triflouroacetyl)-AMC as substrate incubated for 30 mins and measured by fluorescence assay. The format is cell-free.
In experiment [1] the target is T1, Protein deacetylase HDAC6 (Homo sapiens, UniProt Q9UBN7).
T1 sequence (Q9UBN7 whole entry): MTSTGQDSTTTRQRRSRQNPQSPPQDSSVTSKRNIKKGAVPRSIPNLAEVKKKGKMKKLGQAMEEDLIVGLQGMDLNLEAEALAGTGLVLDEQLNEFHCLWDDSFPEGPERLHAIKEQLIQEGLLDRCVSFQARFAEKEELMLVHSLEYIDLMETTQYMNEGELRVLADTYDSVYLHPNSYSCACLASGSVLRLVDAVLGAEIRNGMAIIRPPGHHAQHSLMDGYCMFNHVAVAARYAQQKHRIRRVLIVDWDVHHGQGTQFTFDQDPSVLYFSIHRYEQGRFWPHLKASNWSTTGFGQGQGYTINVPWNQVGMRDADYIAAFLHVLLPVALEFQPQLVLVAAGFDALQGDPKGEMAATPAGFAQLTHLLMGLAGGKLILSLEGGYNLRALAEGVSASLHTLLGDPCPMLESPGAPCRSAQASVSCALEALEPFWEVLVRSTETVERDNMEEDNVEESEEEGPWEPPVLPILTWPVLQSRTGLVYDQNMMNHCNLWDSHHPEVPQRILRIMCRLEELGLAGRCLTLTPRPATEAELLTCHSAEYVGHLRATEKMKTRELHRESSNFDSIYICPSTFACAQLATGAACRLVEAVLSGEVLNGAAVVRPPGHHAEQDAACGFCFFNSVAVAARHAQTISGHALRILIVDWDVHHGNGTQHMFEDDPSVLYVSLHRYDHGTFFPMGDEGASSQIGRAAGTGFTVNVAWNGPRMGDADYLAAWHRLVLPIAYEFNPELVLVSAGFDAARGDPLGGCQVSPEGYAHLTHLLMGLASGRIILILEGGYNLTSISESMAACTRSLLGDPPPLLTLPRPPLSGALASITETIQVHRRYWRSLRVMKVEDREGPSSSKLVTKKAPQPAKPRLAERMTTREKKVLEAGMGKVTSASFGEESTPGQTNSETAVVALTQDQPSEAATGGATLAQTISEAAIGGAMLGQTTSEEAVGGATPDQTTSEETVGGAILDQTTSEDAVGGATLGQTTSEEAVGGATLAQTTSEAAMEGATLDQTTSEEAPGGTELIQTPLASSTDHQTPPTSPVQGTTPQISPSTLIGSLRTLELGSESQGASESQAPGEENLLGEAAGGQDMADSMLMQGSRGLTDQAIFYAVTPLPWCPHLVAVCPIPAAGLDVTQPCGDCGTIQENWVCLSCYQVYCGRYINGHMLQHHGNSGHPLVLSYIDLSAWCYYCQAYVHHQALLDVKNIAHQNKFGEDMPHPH
Put plainly: Inhibition of HDAC6 in human HeLa cell nuclear extract using Boc-Lys(Ac)-AMC or Boc-Lys(triflouroacetyl)-AMC as substrate incubated for 30 mins and measured by fluorescence assay. The format is cell-free.

Sequence of Histone deacetylase 1 (Q13547 whole entry): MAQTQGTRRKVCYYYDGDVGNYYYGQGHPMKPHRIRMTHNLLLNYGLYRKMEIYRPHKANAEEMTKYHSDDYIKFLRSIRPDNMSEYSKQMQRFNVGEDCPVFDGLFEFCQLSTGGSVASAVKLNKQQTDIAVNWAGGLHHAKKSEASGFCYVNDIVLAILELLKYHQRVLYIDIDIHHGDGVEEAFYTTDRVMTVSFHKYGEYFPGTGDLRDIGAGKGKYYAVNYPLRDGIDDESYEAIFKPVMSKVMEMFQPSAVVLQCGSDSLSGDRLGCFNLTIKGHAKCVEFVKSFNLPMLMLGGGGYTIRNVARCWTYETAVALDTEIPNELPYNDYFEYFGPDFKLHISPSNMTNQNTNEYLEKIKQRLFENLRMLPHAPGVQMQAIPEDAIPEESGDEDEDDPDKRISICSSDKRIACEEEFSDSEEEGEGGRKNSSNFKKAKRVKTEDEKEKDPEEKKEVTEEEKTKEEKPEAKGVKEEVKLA

Turning to `O=C(CCCCCOc1cccc(-c2nnc(-c3ccccc3)s2)c1)NO`, the IC50 against Histone deacetylase 1 is 15 nM; in experiment [1] it was 20 nM.

By IC50 is commonly meant the concentration that inhibits the measured activity by half. The low end stands for inhibition by little substance, the high end for a need for much substance.

These data come from ChEMBL document CHEMBL5108012, “Discovery of 2,5-diphenyl-1,3,4-thiadiazole derivatives as HDAC inhibitors with DNA binding affinity” (Eur J Med Chem, 2022).
